Usually EC50 stands for the concentration giving half of the maximal effect.

Series [1] deals with S1P1/EDG1 (Homo sapiens, UniProt P21453). In words: S1P1 CRE-bla CHOK1 reporter assay, inhibition of Forskolin induced cAMP. The series is classed as cell-based. The following applies: CRE-bla CHOK1 cells, with Forskolin; read-out: S1P1 agonist value (EC50). The protocol:
Generation of S1P1-Mediated Inhibition of cAMP Reporter Assay
S1P1/pcDNA3.1 was transfected into the CRE-bla CHO K1 (Invitrogen) cell line, and stable single cell clones were selected using standard techniques.
S1P1 CRE-Bla CHOK1 Reporter Assay—Characterization of S1P1 Agonists
Cells were seeded into 384-well black wall/clear bottom plates at 10^4 cells/well/19.5 μl assay media (DMEM-phenol free, 0.5% charcoal/dextran stripped serum, 2 mM glutamine, 0.1 mM NEAA, 1 mM Na-Pyruvate, 25 mM Hepes) and incubated for 18 hrs at 37° C. in 5% CO2. Dose response curves (10-point) were generated in 10 mM Hepes, 0.1% Pluronic F127, in the presence of Forskolin. Cells were treated with 0.5 μl compound in the presence of 2 μM Forskolin for 4 hrs at 37° C. The FRET-based β-lactamase fluorescent substrate (LiveBLAzer™-FRET B/G Loading Kit CC4-AM; Invitrogen) was prepared according to manufacturer's directions, and incubated with cells for 2 hrs at room temperature. […] Data was analyzed by non-linear regression to determine the EC50 for inhibition of Forskolin induced cAMP.

In series [2] the target is T1, S1P2 (Homo sapiens, UniProt O95136).
T1 construct: expressed in transfected cells; host or cells: CRE-bla CHOK1
In words: Specificity over other S1P receptors: S1P2 CRE-bla CHOK1. The series is classed as cell-based. The following applies: S1P2 CRE-bla CHOK1, without Forskolin; read-out: S1P2 agonist value (EC50). The protocol:
(§1) Cells were seeded into 384-well black wall/clear bottom plates at 10^4 cells/well/19.5 μl assay media (DMEM-phenol free, 0.5% charcoal/dextran stripped serum, 2 mM glutamine, 0.1 mM NEAA, 1 mM Na-Pyruvate, 25 mM Hepes) and incubated for 18 hrs at 37° C. in 5% CO2. Dose response curves (10-point) were generated in 10 mM Hepes, 0.1% Pluronic F127, in the presence of Forskolin. Cells were treated with 0.5 μl compound in the presence of 2 μM Forskolin for 4 hrs at 37° C. The FRET-based β-lactamase fluorescent substrate (LiveBLAzer™-FRET B/G Loading Kit CC4-AM; Invitrogen) was prepared according to manufacturer's directions, and incubated with cells for 2 hrs at room temperature. Plates were read at Ex:410/Em:458 and Ex:410/Em:522, and the response ratio determined. Data was analyzed by non-linear regression to determine the EC50 for inhibition of Forskolin induced cAMP.
(§2) To assess compound specificity on other S1P receptors the following cell lines were used: S1P2 CRE-bla CHOK1, S1P3-Gα15 NFAT-bla HEK293T (Invitrogen), S1P4-bla TANGO U2OS (Invitrogen), S1P5-bla TANGO U2OS (Invitrogen). The same assay set up for S1P1 was used but without Forskolin. S1P4 and S1P5 assays were performed in FreeStyle Expression medium (Invitrogen). S1P5 cells were incubated for 48 hrs in prior to treatment with compound.

In series [3] the target is T2, S1P4 (Homo sapiens, UniProt O95977).
T2 construct: fused on or other part: Tango handle at the receptor's C-terminus: a TEV protease cleavage site and the Gal4-VP16 transcription factor, possibly a V2 vasopressin receptor tail; The cells also carry a beta-arrestin/TEV protease fusion and a UAS-beta-lactamase reporter
T2 sequence (O95977 1-384): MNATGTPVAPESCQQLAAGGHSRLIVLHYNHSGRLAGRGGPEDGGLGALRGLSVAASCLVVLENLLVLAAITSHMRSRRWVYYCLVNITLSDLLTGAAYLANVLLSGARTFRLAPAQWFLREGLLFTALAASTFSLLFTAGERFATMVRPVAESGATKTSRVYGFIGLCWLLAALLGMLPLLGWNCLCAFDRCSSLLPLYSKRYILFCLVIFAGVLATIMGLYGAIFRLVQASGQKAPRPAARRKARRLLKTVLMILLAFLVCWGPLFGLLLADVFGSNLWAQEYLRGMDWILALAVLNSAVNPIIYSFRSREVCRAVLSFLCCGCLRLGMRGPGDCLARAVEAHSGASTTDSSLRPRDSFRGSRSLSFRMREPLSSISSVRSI
As to the kind of experiment: Specificity over other S1P receptors: S1P4-bla TANGO U2OS. As to conditions: without Forskolin, read-out: S1P4 agonist value (EC50). In kind it is cell-based. The protocol: as §1, §2

In series [4] the target is T3, S1P5 (Homo sapiens, UniProt Q9H228).
T3 construct: fused on or other part: Tango handle at the receptor's C-terminus: a TEV protease cleavage site and the Gal4-VP16 transcription factor, possibly a V2 vasopressin receptor tail; The cells also carry a beta-arrestin/TEV protease fusion and a UAS-beta-lactamase reporter
In words: Specificity over other S1P receptors: S1P5-bla TANGO U2OS. The series is classed as cell-based. The following applies: without Forskolin, read-out: S1P5 agonist value (EC50). The protocol: as §1, §2

Series [5] deals with peripheral T-cell counts. As to the kind of experiment: Lymphopenia in rats, multiple dose. In kind it is in vivo. As to conditions: 24 hours after final dose of a 3-5 day multiple dose regimen. The protocol: In rats: Female rats (Simonsen Laboratories, Gilroy Calif.) were housed in an ALAAC accredited facility and the research was approved by the facilities Institutional Animal Care and Use Committee (IACUC). The animals were acclimated to the laboratory for at least 5 days prior to initiation of experiments. Rats (n=3/compound/time-point) were dosed by oral gavage with 1 mg/kg compound formulated in a vehicle consisting of 5% DMSO/5% Tween 20 and 90% 0.1N HCL. Control rats were dosed PO with the vehicle. Whole blood was collected from isoflurane anesthetized rats via the retro-orbital sinus and terminal samples were collected by cardiac puncture into EDTA. Whole blood was incubated with mouse anti-rat CD32 (BD #550271), PE-mouse anti-rat CD45R/B220 (BD #554881), PECy5-mouse anti-rat CD4 (BD #554839), and APC-mouse anti-rat CD8a (eBioscience #17-0084) for 30 minutes on ice. Red blood cells were lysed using BD Pharm Lyse Lysing buffer (#555899) and white blood cells were analyzed with a BD FACSArray. Lymphopenia was expressed as the % of white blood cells that were CD4 or CD8 positive T cells. […]
Prior to the conduct of toxicology studies, the effect of three to five daily doses of each compound on peripheral T-cell counts of female rats was determined (see lymphopenia measurements in rats above). […]

A short description of series [6]: Therapeutic index, 5 or 14 day toxicology studies in rats (lung to body weight). In kind it is in vivo, Sprague-Dawley rats. The protocol:
All studies were conducted in non-fasted male and female Sprague-Dawely rats (Simonsen Laboratories). Rats were housed in an AAALAC accredited facility and the research was approved by the facilities Institutional Animal Care and Use Committee (IACUC). The animals were acclimated to the laboratory for at least 5 days prior to initiation of experiments.
The compounds listed in Table 6 were formulated as suspensions in a vehicle consisting of 0.5% carboxymethyl cellulose (Acros Organics) in purified water (pH adjusted to ˜2.2 with hydrochloric acid). The same formulation was used in the rat lymphopenia and toxicology studies described below. The concentration of each compound in suspension was verified to be within ±10% of the target concentration by HPLC-UV.
Prior to the conduct of toxicology studies, the effect of three to five daily doses of each compound on peripheral T-cell counts of female rats was determined (see lymphopenia measurements in rats above). In these lymphopenia studies, blood samples were collected onto EDTA at intervals after the final study dose. The collection times were not identical for each study; however, all studies included a sample collected 24 hours after the final dose. The lymphopenia data was used as a biomarker to select equally pharmacologically active doses for the subsequent toxicology study. […]

Chain of S1P1/EDG1 (P21453 whole entry): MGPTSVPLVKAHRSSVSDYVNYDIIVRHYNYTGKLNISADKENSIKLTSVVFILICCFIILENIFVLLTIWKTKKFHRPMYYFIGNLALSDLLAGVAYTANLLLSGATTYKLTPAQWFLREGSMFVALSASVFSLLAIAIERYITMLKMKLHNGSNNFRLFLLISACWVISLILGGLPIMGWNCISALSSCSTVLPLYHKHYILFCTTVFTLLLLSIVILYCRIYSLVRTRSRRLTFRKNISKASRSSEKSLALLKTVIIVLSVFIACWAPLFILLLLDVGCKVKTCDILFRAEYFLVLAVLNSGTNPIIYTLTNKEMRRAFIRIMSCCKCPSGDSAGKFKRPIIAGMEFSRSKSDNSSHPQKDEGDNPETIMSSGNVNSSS
T3 sequence (Q9H228 whole entry, the tested form may be a part): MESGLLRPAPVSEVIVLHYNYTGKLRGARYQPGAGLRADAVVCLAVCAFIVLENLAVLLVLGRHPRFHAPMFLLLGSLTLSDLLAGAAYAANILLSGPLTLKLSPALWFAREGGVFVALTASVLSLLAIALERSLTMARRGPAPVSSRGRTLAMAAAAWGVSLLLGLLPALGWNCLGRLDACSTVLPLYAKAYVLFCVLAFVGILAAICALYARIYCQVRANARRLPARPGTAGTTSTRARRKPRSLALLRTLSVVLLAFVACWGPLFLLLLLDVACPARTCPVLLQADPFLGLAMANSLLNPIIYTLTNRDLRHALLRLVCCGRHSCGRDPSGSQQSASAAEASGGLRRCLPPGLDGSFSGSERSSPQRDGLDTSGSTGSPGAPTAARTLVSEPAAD
T1 sequence (O95136 whole entry, species assumed): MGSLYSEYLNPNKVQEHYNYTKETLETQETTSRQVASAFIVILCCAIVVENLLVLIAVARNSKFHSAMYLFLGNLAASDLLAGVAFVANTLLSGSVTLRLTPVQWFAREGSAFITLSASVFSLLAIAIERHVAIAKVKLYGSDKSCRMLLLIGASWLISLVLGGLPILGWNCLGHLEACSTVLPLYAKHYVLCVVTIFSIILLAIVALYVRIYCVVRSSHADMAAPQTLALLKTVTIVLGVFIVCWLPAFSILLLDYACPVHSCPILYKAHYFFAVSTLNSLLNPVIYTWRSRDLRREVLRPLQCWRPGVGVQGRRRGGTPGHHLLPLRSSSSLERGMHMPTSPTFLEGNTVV

On to `CC(C)Oc1ccc(-c2nc(-c3cccc4c3CCC4NS(=O)(=O)CCO)no2)cc1C#N` (stereo in doubt) [Compound 186, (R)—N-(4-(5-(3-cyano-4-isopropoxyphenyl)-1,2,4-oxadiazol-3-yl)-2,3-dihydro-1H-inden-1-yl)-2-hydroxyethanesulfonamide], for which the EC50 was determined as 0.05 nM in series [1], 1570 nM in series [2], 1210 nM in series [3] and 32.3 nM in series [4]. Further, the “Dose Producing 50% lymphopenia” value in series [5] amounted to 0.07 mg/kg. Moreover, in series [6] (5 day toxicology study, dose for 10% lung weight increase / dose for 50% T-cell depletion), the “TI 5 days” value worked out at 16. In addition, in series [6] (oral, 5 or 14 consecutive days, interpolated from dose versus lung to body weight), the “Dose Resulting in 10% increase in lung weight” value came to 1.1 mg/kg.

These data come from patent publication US20170165236A1, “SELECTIVE SPHINGOSINE 1 PHOSPHATE RECEPTOR MODULATORS AND COMBINATION THERAPY THEREWITH” (Celgene International II Sàrl, priority 2013, published 2017).
